# Reference: US20260022142A1, “MACROCYCLIC IMMUNOMODULATORS” (Bristol-Myers Squibb Company, priority 2022, published 2026)
# Numbered stars: 1 amine (or outer) side, 2 acyl side, 3 side chain; on linkers, the order of the positions; unused ones are H or OH. Bridge positions count the residues as written; N and C are the ends. Square brackets hold non-standard residues; d marks the D form. Peptide text beside a SMILES is read from it. * marks the point of attachment. ξ: configuration not given here. Phe(3-CF3) = N[C@@H](Cc1cccc(C(F)(F)F)c1)C(=O)O; Phe(4-COOH) = N[C@@H](Cc1ccc(C(=O)O)cc1)C(=O)O; d(γGlu) = O=C(O)[C@@H](CCC(=O)[*:2])N[*:1]; Bip = N[C@@H](Cc1ccc(-c2ccccc2)cc1)C(=O)O; NH(CH2)14COOH = O=C(O)CCCCCCCCCCCCCCN*; Phe(3-Me) = Cc1cccc(C[C@H](N)C(=O)O)c1; NH(CH2)12COOH = O=C(O)CCCCCCCCCCCCN*; Val(3-OH) = CC(C)(O)[C@H](N)C(=O)O; hArg = N=C(N)NCCCC[C@H](N)C(=O)O; 4Pal = N[C@@H](Cc1ccncc1)C(=O)O; Cha = N[C@@H](CC1CCCCC1)C(=O)O; Cit = NC(=O)NCCC[C@H](N)C(=O)O; Thr(3ξ) = CC(O)[C@H](N)C(=O)O; PEG4 = NCCOCCOCCOCCOCCC(=O)O; 12Ado = NCCCCCCCCCCCC(=O)O; Carboxymethyl = O=C(O)C*; Orn = NCCC[C@H](N)C(=O)O; Aun = NCCCCCCCCCCC(=O)O; Dab = NCC[C@H](N)C(=O)O; Dap = NC[C@H](N)C(=O)O; AEEA = NCCOCCOCC(=O)O; X11 = CC(C)(F)C(=O)*
# Target: T1, PD-1/PD-L1 interaction (PE-labeled human PD-L1-Ig binding to Jurkat cell line over-expressing human PD-1) (Homo sapiens, UniProt Q15116)
# T1 construct: expressed in transfected cells; host or cells: Jurkat
# Experiment: Jurkat-PD-1 Cell Binding High-Content Screening Assay (CBA)
# Type: cell-based
# Conditions: Jurkat cell line over-expressing human PD-1; PE-labeled PD-L1-Ig 20 nM final; read-out: Jurkat hPD1-PDL1 IC50
# Procedure, shortened: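 Jurkat cells over-expressing human PD-1 (8×10^3 per well, DMEM/10% FCS) preincubated with compound 2 h at 37° C, then PE-labeled human PD-L1-Ig (20 nM final) added for 1 h. Cells fixed with paraformaldehyde, Hoechst-stained, and bound fluorescence quantified by high-content imaging.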
# T1 sequence (Q15116 25-288): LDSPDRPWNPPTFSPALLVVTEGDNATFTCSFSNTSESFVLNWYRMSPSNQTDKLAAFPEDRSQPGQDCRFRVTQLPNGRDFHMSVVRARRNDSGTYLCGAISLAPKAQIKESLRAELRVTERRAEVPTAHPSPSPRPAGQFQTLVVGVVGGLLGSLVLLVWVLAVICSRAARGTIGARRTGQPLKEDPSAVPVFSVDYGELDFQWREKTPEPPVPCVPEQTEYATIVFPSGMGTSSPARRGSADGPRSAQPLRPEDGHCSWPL
row,IC50,SMILES
1,37.8 nM,Cc1cccc(C[C@@H]2NC(=O)[C@H](CC(=O)O)NC(=O)[C@H](Cc3ccc(OCC(=O)O)cc3)NC(=O)[C@H](CN)NC(=O)CSC[C@@H](C(=O)N[C@@H](CCN)C(=O)NCCCCCCCCCCC(=O)O)NC(=O)[C@@H](CCC(N)=O)NC(=O)[C@H](C(C)C)NC(=O)[C@H](CC(C)C)NC(=O)[C@H](CCN)NC(=O)[C@@H](CC(C)C)NC(=O)[C@H](CCCN)NC(=O)[C@H](Cc3ccc(O)cc3)NC(=O)[C@H](Cc3ccc(-c4ccccc4)cc3)NC(=O)[C@H](C(C)C)NC2=O)c1 [Compound 2770] ({CH2CO}-[Dap]Y(Carboxymethyl)D[Phe(3-Me)]V[Bip]Y[Orn][dL][Dab]LV[dQ]C[Dab][Aun]-OH; thioether N-14)
2,45.2 nM,Cc1cccc(C[C@@H]2NC(=O)[C@H](CC(=O)O)NC(=O)[C@H](Cc3ccc(OCC(=O)O)cc3)NC(=O)[C@H](C)NC(=O)CSC[C@@H](C(=O)N[C@@H](CCN)C(=O)NCCOCCOCC(=O)NCCOCCOCC(=O)NCCOCCOCC(=O)NCCCCCCCCCCCCCCC(=O)O)NC(=O)[C@H](CO)NC(=O)[C@H](C(C)(C)O)NC(=O)[C@H](CC3CCCCC3)NC(=O)[C@H](CCN)NC(=O)[C@@H](CC(C)C)NC(=O)[C@H](CCCN)NC(=O)[C@H](Cc3ccc(C(=O)O)cc3)NC(=O)[C@H](Cc3ccc(-c4ccccc4)cc3)NC(=O)[C@H](Cc3ccc(C(=O)O)cc3)NC2=O)c1 [Compound 3854] ({CH2CO}-AY(Carboxymethyl)D[Phe(3-Me)][Phe(4-COOH)][Bip][Phe(4-COOH)][Orn][dL][Dab][Cha][Val(3-OH)]SC[Dab][AEEA][AEEA][AEEA]-{NH(CH2)14COOH}; thioether N-14)
3,8.4 nM,Cc1cccc(C[C@@H]2NC(=O)[C@H](CC(=O)O)NC(=O)[C@H](Cc3ccncc3)NC(=O)[C@H](Cc3ccc(OCC(=O)O)cc3)NC(=O)CSC[C@@H](C(=O)N[C@@H](CCN)C(=O)NCCOCCOCC(=O)NCCCCCCCCCCC(=O)O)NC(=O)[C@H](CCCN)NC(=O)[C@H](C(C)C)NC(=O)[C@H](CC3CCCCC3)NC(=O)[C@H](CCN)NC(=O)[C@@H](CC(C)C)NC(=O)[C@H](CCCN)NC(=O)[C@H](Cc3ccc(O)cc3)NC(=O)[C@H](Cc3ccc(-c4ccccc4)cc3)NC(=O)[C@H](C(C)C)NC2=O)c1 [Compound 2709] ({CH2CO}-Y(Carboxymethyl)[4Pal]D[Phe(3-Me)]V[Bip]Y[Orn][dL][Dab][Cha]V[Orn]C[Dab][AEEA][Aun]-OH; thioether N-14)
4,70.6 nM,COC[C@@H]1NC(=O)CSC[C@@H](C(=O)N[C@@H](CCN)C(=O)NCCOCCOCCOCCOCCC(=O)NCCCCCCCCCCCCC(=O)O)NC(=O)[C@H](CO)NC(=O)[C@H](C(C)(C)O)NC(=O)[C@H](CC2CCCCC2)NC(=O)[C@H](CCN)NC(=O)[C@@H](CC(C)C)NC(=O)[C@H](CCCN)NC(=O)[C@H](Cc2ccc(C(=O)O)cc2)NC(=O)[C@H](Cc2ccc(-c3ccccc3)cc2)NC(=O)[C@H](Cc2ccc(C(=O)O)cc2)NC(=O)[C@H](Cc2cccc(C(F)(F)F)c2)NC(=O)[C@H](CC(=O)O)NC(=O)[C@H](Cc2ccc(OCC(=O)O)cc2)NC1=O [Compound 2905] ({CH2CO}-S(Me)Y(Carboxymethyl)D[Phe(3-CF3)][Phe(4-COOH)][Bip][Phe(4-COOH)][Orn][dL][Dab][Cha][Val(3-OH)]SC[Dab][PEG4]-{NH(CH2)12COOH}; thioether N-14)
5,38.2 nM,Cc1cccc(C[C@@H]2NC(=O)[C@H](CC(=O)O)NC(=O)[C@H](Cc3ccc(OCC(=O)O)cc3)NC(=O)[C@H](Cc3ccncc3)NC(=O)CSC[C@@H](C(=O)N[C@@H](CCCN)C(=O)N[C@@H](CO)C(=O)NCCCCCCCCCCCC(=O)O)NC(=O)[C@H](C(C)O)NC(=O)[C@H](C(C)C)NC(=O)[C@H](CC3CCCCC3)NC(=O)[C@H](CCN)NC(=O)[C@@H](CC(C)C)NC(=O)[C@H](CCCN)NC(=O)[C@H](CCCNC(=O)C(C)(C)F)NC(=O)[C@H](Cc3ccc(-c4ccccc4)cc3)NC(=O)[C@H](Cc3ccc(O)cc3)NC2=O)c1 (stereo partly drawn) [Compound 3584] ({CH2CO}-[4Pal]Y(Carboxymethyl)D[Phe(3-Me)]Y[Bip][Orn](X11)[Orn][dL][Dab][Cha]V[Thr(3ξ)]C[Orn]S[12Ado]-OH; thioether N-14)
6,8.7 nM,Cc1cccc(C[C@@H]2NC(=O)[C@H](CC(=O)O)NC(=O)[C@H](Cc3ccc(OCC(=O)O)cc3)NC(=O)[C@H](CCCNC(=N)N)NC(=O)CSC[C@@H](C(=O)NCCOCCOCC(=O)N[C@H](CCC(=O)NCCCCCCCCCCC(=O)O)C(=O)O)NC(=O)[C@H](C(C)O)NC(=O)[C@H](C(C)C)NC(=O)[C@H](CC3CCCCC3)NC(=O)[C@H](CCN)NC(=O)[C@@H](CC(C)C)NC(=O)[C@H](CCCN)NC(=O)[C@H](CCCNC(N)=O)NC(=O)[C@H](Cc3ccc(-c4ccccc4)cc3)NC(=O)[C@H](C(C)C)NC2=O)c1 (stereo partly drawn) [Compound 3400] ({CH2CO}-RY(Carboxymethyl)D[Phe(3-Me)]V[Bip][Cit][Orn][dL][Dab][Cha]V[Thr(3ξ)]C[AEEA][d(γGlu)][Aun]-OH; thioether N-14)
7,19.3 nM,Cc1cccc(C[C@@H]2NC(=O)[C@H](CC(=O)O)NC(=O)[C@H](Cc3ccc(OCC(=O)O)cc3)NC(=O)[C@H](CN)NC(=O)CSC[C@@H](C(=O)N[C@@H](CCN)C(=O)NCCOCCOCC(=O)NCCCCCCCCCCC(=O)O)NC(=O)[C@@H](CO)NC(=O)[C@H](C(C)C)NC(=O)[C@H](CC3CCCCC3)NC(=O)[C@H](CCN)NC(=O)[C@@H](CC(C)C)NC(=O)[C@H](CCCN)NC(=O)[C@H](C(C)C)NC(=O)[C@H](Cc3ccc(-c4ccccc4)cc3)NC(=O)[C@H](Cc3ccc(O)cc3)NC2=O)c1 [Compound 2017] ({CH2CO}-[Dap]Y(Carboxymethyl)D[Phe(3-Me)]Y[Bip]V[Orn][dL][Dab][Cha]V[dS]C[Dab][AEEA][Aun]-OH; thioether N-14)
8,34.1 nM,CC(C)C[C@H]1NC(=O)[C@H](CCCN)NC(=O)[C@H](C(C)C)NC(=O)[C@H](Cc2ccc(-c3ccccc3)cc2)NC(=O)[C@H](C(C)C)NC(=O)[C@H](Cc2c[nH]c3ccccc23)NC(=O)[C@H](CC(=O)O)NC(=O)[C@H](Cc2ccc(OCC(=O)O)cc2)NC(=O)[C@H](CCCCNC(=N)N)NC(=O)CSC[C@@H](C(=O)N[C@@H](CCN)C(=O)NCCCCCCCCCCC(=O)O)NC(=O)[C@H](C(C)O)NC(=O)[C@H](C(C)C)NC(=O)[C@H](CC2CCCCC2)NC(=O)[C@H](Cc2cnc[nH]2)NC1=O (stereo partly drawn) [Compound 3151] ({CH2CO}-[hArg]Y(Carboxymethyl)DWV[Bip]V[Orn][dL]H[Cha]V[Thr(3ξ)]C[Dab][Aun]-OH; thioether N-14)
9,1.2 nM,Cc1cccc(C[C@@H]2NC(=O)[C@H](CC(=O)O)NC(=O)[C@H](Cc3ccc(O)cc3)NC(=O)[C@H]([C@@H](C)O)NC(=O)CSC[C@@H](C(=O)N[C@@H](CCN)C(=O)NCCOCCOCC(=O)NCCCCCCCCCCC(=O)O)NC(=O)[C@H](CO)NC(=O)[C@H](C(C)(C)O)NC(=O)[C@H](CC3CCCCC3)NC(=O)[C@H](CCN)NC(=O)[C@@H](CC(C)C)NC(=O)[C@H](CCCN)NC(=O)[C@H](Cc3ccc(OCC(=O)O)cc3)NC(=O)[C@H](Cc3ccc(-c4ccccc4)cc3)NC(=O)[C@H](Cc3ccc(OCC(=O)O)cc3)NC2=O)c1 [Compound 2245] ({CH2CO}-TYD[Phe(3-Me)]Y(Carboxymethyl)[Bip]Y(Carboxymethyl)[Orn][dL][Dab][Cha][Val(3-OH)]SC[Dab][AEEA][Aun]-OH; thioether N-14)
